Measured values from US20240102994A1, “Method to Evaluate the Capability of Compounds on the Trapping of Proteins” (Eisbach Bio GmbH, priority 2020, published 2024).
“Also recorded” adds a separate entry of the source.

Columns and labels:
GFP-PARP2 = target: T1, GFP-PARP2 (Homo sapiens, UniProt Q9UGN5); assay: Live-cell protein trapping assay: GFP-PARP2 at laser micro-irradiation sites; format: cell-based; details: U2OS cells
T1 construct: expressed in transfected cells; host or cells: U2OS
Text: The disclosed method is used to analyze protein trapping induced by compounds. Live-cell imaging allows monitoring of the accumulation of at least one protein, e.g. which is detectably labelled, e.g. fluorophore-tagged, at the induced DNA lesions over time. Time0 (t0) hereby describes the timepoint before induction of DNA damage by irradiation. Thus, the relative enrichment of the at least one protein at DNA lesions within the imaged time frame (from t0 to tEND) can be quantified. This allows to the analysis of the recruitment and retention (protein trapping) kinetics of the at least one protein, e.g. which is detectably labelled, e.g. fluorophore-tagged, at DNA lesions. Suitably, as a first step the accumulation and/or residence time of a protein, e.g. which is detectably labelled, e.g. fluorophore-tagged, is measured in the absence of a test compound (control). The optimal imaging time is hereby determined by the time in which the majority of the protein has released from the damage site, indicated by the decrease of signal, e.g. fluorescent signal, at the DNA lesion (see FIG. 2A). Subsequently, the accumulation and/or residence time of the protein, e.g. which is detectably labelled, e.g. fluorophore-tagged, may be determined in the presence of at least one test compound. […] Using this method, we examined the trapping of GFP-tagged ALC1 in the presence of ALCi-1 compared to a DMSO control.
Eukaryotic cells were seeded onto 4/8-well Nunc Lab-Tek chambers (Thermo Fisher Scientific) in the corresponding cell culture medium, cultured over night at 37° C. and transfected with fluorophore-tagged protein plasmids using XtremeGENE HP DNA transfection reagent (Sigma). […]
The drug- and control-master-mixes were prepared in Leibovitz's L-15 media (+10% FBS). […] Therefore, the optimal imaging time for the protein of interest was determined by investigation of the trapping and release under control conditions (no treatment). […] Subsequently, the fluorophore-tagged protein was measured in the presence of at least one compound. […]

PARP1-GFP = PARP1-GFP (Homo sapiens, UniProt P09874); details: wild-type U2OS cells, 10 μM for 1 h, 355 nm laser, 30 minutes, compared to DMSO
Text: The disclosed method is used to analyze protein trapping induced by compounds. Live-cell imaging allows monitoring of the accumulation of at least one protein, e.g. which is detectably labelled, e.g. fluorophore-tagged, at the induced DNA lesions over time. Time0 (t0) hereby describes the timepoint before induction of DNA damage by irradiation. Thus, the relative enrichment of the at least one protein at DNA lesions within the imaged time frame (from t0 to tEND) can be quantified. This allows to the analysis of the recruitment and retention (protein trapping) kinetics of the at least one protein, e.g. which is detectably labelled, e.g. fluorophore-tagged, at DNA lesions. Suitably, as a first step the accumulation and/or residence time of a protein, e.g. which is detectably labelled, e.g. fluorophore-tagged, is measured in the absence of a test compound (control). The optimal imaging time is hereby determined by the time in which the majority of the protein has released from the damage site, indicated by the decrease of signal, e.g. fluorescent signal, at the DNA lesion (see FIG. 2A). Subsequently, the accumulation and/or residence time of the protein, e.g. which is detectably labelled, e.g. fluorophore-tagged, may be determined in the presence of at least one test compound. […]

T1 sequence (Q9UGN5 whole entry): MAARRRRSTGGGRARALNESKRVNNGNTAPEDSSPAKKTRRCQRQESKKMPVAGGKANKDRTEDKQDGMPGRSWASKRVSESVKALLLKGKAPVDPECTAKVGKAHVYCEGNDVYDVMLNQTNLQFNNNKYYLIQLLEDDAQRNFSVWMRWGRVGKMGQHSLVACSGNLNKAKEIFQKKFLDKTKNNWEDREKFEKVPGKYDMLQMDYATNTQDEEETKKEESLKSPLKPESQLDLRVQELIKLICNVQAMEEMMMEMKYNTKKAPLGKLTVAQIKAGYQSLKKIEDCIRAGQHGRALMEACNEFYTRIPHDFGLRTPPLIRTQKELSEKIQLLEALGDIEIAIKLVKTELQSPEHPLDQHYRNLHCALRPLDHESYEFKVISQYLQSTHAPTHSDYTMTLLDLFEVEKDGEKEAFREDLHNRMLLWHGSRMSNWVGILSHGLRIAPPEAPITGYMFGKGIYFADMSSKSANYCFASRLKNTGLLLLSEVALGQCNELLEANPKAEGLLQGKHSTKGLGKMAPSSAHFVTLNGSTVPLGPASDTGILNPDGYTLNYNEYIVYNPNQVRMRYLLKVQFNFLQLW
PARP1-GFP, sequence (P09874 whole entry): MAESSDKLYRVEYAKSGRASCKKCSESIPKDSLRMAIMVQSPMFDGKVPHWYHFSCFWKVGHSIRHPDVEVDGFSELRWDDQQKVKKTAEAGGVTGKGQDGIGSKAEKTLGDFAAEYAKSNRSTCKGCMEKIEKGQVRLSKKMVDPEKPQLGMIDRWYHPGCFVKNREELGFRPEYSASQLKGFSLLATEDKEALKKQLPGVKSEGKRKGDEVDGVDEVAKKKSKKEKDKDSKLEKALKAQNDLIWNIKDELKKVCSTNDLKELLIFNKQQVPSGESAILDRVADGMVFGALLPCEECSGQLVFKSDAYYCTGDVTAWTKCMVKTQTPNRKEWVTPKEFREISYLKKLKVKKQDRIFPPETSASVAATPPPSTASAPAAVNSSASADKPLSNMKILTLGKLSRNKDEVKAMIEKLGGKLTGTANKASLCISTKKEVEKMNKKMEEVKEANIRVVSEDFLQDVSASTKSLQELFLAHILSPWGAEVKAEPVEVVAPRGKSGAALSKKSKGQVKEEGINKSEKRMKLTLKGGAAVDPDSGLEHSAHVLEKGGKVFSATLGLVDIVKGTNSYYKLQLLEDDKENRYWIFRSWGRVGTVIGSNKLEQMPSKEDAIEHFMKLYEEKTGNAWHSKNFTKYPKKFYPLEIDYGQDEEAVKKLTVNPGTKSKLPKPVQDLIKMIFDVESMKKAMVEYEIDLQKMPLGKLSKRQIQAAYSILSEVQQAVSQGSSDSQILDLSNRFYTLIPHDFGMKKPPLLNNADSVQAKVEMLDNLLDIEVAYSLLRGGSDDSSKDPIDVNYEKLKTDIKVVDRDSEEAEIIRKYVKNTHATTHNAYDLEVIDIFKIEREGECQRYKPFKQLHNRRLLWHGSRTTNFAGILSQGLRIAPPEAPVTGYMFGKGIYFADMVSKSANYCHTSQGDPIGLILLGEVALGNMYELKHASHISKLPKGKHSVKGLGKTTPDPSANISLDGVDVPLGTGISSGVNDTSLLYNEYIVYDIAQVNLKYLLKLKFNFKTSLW

Structure (SMILES) | retention of PARP2 at induced damage sites (PARP trapping) (GFP-PARP2; talazoparib 100 nM, 10% 355 nm laser, 15 minutes, vs absence of PARPi) | recruitment of PARP2 to the damage site (GFP-PARP2; veliparib 10 μM, 10% 355 nm laser, 15 minutes, vs absence of PARPi) | PARP2 trapping at DNA lesions (GFP-PARP2; veliparib, compared to DMSO-only control) | retention of PARP1 at DNA damage sites (PARP1-trapping) (PARP1-GFP)
Cn1ncnc1[C@H]1c2n[nH]c(=O)c3cc(F)cc(c23)N[C@@H]1c1ccc(F)cc1 [talazoparib] | enhanced retention of PARP2 |  |  | 
C[C@]1(c2nc3c(C(N)=O)cccc3[nH]2)CCCN1 [veliparib] |  | less recruitment of PARP2; also recorded: overall less PARP2 recruitment | only weak trapping | enhanced retention of PARP1
